Earlier results, collected in US11938184B2, “Compositions and methods for treating Crohn's Disease and related conditions and infections” (priority 2012, dated 2024).

System: Crohn's disease fistulae

Substance: infliximab
- response in fistulae (ACCENT 2 trial, after 14 weeks): 60%
- fistulae maintaining closure (ACCENT 2 trial, at 1 year): 36%
- healing of perianal fistulae (infliximab alone): 46-78%
- healing of recto-vaginal fistulae (infliximab alone): 14-30%
- fistulae initially healed (initial phase II and subsequent phase III trials, 296 patients): 56-68%
- median duration of fistula closure (normally requiring 3 doses of infliximab): approximately 3 months
